In ChEMBL document CHEMBL1201862, “PubChem BioAssay data set” (2004):
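Cultured in 96-well plates, cells were exposed to test compound for 48 hours across five concentrations. At the GI50, growth is halved.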 The source made the active and inactive calls. No stated cut-off is given here; in the data, active = GI50 up to about 1.1 µM and inactive = higher.

How the values were obtained:
Test in all cases: NCI tumour cell line growth inhibition, 48 h
[1] = system: UACC-62
[2] = system: SNB-19
[3] = system: DMS-273
[4] = system: M14
[5] = system: DLD-1
[6] = system: RPMI-8226
[7] = system: SF-539
[8] = system: OVCAR-8
[9] = system: SF-295
[10] = system: IGROV-1
[11] = system: K562
[12] = system: ACHN
[13] = system: NCI-H460
[14] = system: HOP-92
[15] = system: EKVX
[16] = system: A549
[17] = system: HCT-15
[18] = system: SW-620
[19] = system: UACC-257
[20] = system: SK-MEL-28
[21] = system: NCI-H522
[22] = system: OVCAR-5
[23] = system: CAKI-1
[24] = system: 786-0
[25] = system: HCC 2998
[26] = system: A498
[27] = system: LXFL 529
[28] = system: OVCAR-4
[29] = system: OVCAR-3
[30] = system: HL-60
[31] = system: M19-MEL
[32] = system: XF498
[33] = system: SK-OV-3
[34] = system: U-251
[35] = system: LOX IMVI
[36] = system: HT-29
[37] = system: DMS-114
[38] = system: UO-31
[39] = system: NCI-H23
[40] = system: Malme-3M
[41] = system: KM12
[42] = system: CCRF-CEM
[43] = system: COLO 205
[44] = system: MOLT-4
[45] = system: KM-20L2
[46] = system: SF-268
[47] = system: SR
[48] = system: SK-MEL-5
[49] = system: HOP-62
[50] = system: HCT-116
[51] = system: HOP-18
[52] = system: TK-10
[53] = system: SNB-75
[54] = system: SK-MEL-2
[55] = system: SN12C
[56] = system: NCI-H226
[57] = system: SNB-78
[58] = system: RXF 393

CCC/C=C1\CCC(CN(C)C)C1=O (centres undefined)
GI50 [1]: 14.6 µM (inactive) | GI50 [2]: 36.7 µM (inactive) | GI50 [3]: 11.9 µM (inactive) | GI50 [4]: 6.52 µM (inactive) | GI50 [5]: 2.38 µM (inactive) | GI50 [6]: 0.333 µM (active) | GI50 [7]: 10.8 µM (inactive) | GI50 [8]: 10.2 µM (inactive) | GI50 [9]: 24.1 µM (inactive) | GI50 [10]: 18.5 µM (inactive) | GI50 [11]: 2.15 µM (inactive) | GI50 [12]: 5.62 µM (inactive) | GI50 [13]: 28.1 µM (inactive) | GI50 [14]: 3.04 µM (inactive) | GI50 [15]: 6.12 µM (inactive) | GI50 [16]: 29.6 µM (inactive) | GI50 [17]: 2.51 µM | GI50 [18]: 4.6 µM (inactive) | GI50 [19]: 15 µM (inactive) | GI50 [20]: 6.52 µM (inactive) | GI50 [21]: 1.93 µM (inactive) | GI50 [22]: 20 µM (inactive) | GI50 [23]: 2.13 µM (inactive) | GI50 [24]: 2.81 µM (inactive) | GI50 [25]: 15.8 µM (inactive) | GI50 [26]: 0.455 µM (active) | GI50 [27]: 1.82 µM (inactive) | GI50 [28]: 18.8 µM (inactive) | GI50 [29]: 5.47 µM (inactive) | GI50 [30]: 9.25 µM (inactive) | GI50 [31]: 12.9 µM (inactive) | GI50 [32]: 5.57 µM (inactive) | GI50 [33]: 36.3 µM (inactive) | GI50 [34]: 5.81 µM (inactive) | GI50 [35]: 7.35 µM (inactive) | GI50 [36]: 8.11 µM (inactive) | GI50 [37]: 15.6 µM (inactive) | GI50 [38]: 12.4 µM (inactive) | GI50 [39]: 17.1 µM (inactive) | GI50 [40]: 1.77 µM (inactive) | GI50 [41]: 4.67 µM (inactive) | GI50 [42]: 1.09 µM (active) | GI50 [43]: 3.1 µM (inactive) | GI50 [44]: 2.88 µM (inactive) | GI50 [45]: 10.3 µM (inactive) | GI50 [46]: 14.5 µM (inactive) | GI50 [47]: 2.49 µM (inactive) | GI50 [48]: 16.7 µM (inactive) | GI50 [49]: 15.7 µM (inactive) | GI50 [50]: 9.91 µM (inactive) | GI50 [51]: 23.4 µM (inactive) | GI50 [52]: 5.41 µM (inactive) | GI50 [53]: 18.1 µM (inactive) | GI50 [54]: 15.9 µM (inactive) | GI50 [55]: 16.9 µM (inactive) | GI50 [56]: 19 µM (inactive)

COc1cc(/C=C/c2csnn2)cc(OC)c1OC
GI50 [1]: > 100 µM (inactive) | GI50 [2]: > 100 µM (inactive) | GI50 [4]: > 100 µM (inactive) | GI50 [5]: > 100 µM (inactive) | GI50 [6]: > 100 µM (inactive) | GI50 [7]: > 100 µM (inactive) | GI50 [8]: > 100 µM (inactive) | GI50 [9]: > 100 µM (inactive) | GI50 [10]: > 100 µM (inactive) | GI50 [11]: > 100 µM (inactive) | GI50 [12]: 78.3 µM (inactive) | GI50 [13]: > 100 µM (inactive) | GI50 [14]: 66.7 µM (inactive) | GI50 [15]: 52.2 µM (inactive) | GI50 [16]: > 100 µM (inactive) | GI50 [17]: > 100 µM | GI50 [18]: > 100 µM (inactive) | GI50 [19]: > 100 µM (inactive) | GI50 [20]: > 100 µM (inactive) | GI50 [21]: > 100 µM (inactive) | GI50 [22]: > 100 µM (inactive) | GI50 [23]: > 100 µM (inactive) | GI50 [24]: > 100 µM (inactive) | GI50 [25]: > 100 µM (inactive) | GI50 [27]: > 100 µM (inactive) | GI50 [28]: > 100 µM (inactive) | GI50 [29]: > 100 µM (inactive) | GI50 [30]: > 100 µM (inactive) | GI50 [31]: > 100 µM (inactive) | GI50 [32]: > 100 µM (inactive) | GI50 [33]: > 100 µM (inactive) | GI50 [34]: > 100 µM (inactive) | GI50 [57]: > 100 µM (inactive) | GI50 [35]: > 100 µM (inactive) | GI50 [36]: > 100 µM (inactive) | GI50 [37]: > 100 µM (inactive) | GI50 [38]: > 100 µM (inactive) | GI50 [39]: > 100 µM (inactive) | GI50 [40]: > 100 µM (inactive) | GI50 [41]: > 100 µM (inactive) | GI50 [42]: > 100 µM (inactive) | GI50 [44]: > 100 µM (inactive) | GI50 [58]: > 100 µM (inactive) | GI50 [46]: 67 µM (inactive) | GI50 [47]: > 100 µM (inactive) | GI50 [48]: > 100 µM (inactive) | GI50 [49]: > 100 µM (inactive) | GI50 [50]: > 100 µM (inactive) | GI50 [51]: > 100 µM (inactive) | GI50 [52]: > 100 µM (inactive) | GI50 [54]: > 100 µM (inactive) | GI50 [55]: > 100 µM (inactive) | GI50 [56]: > 100 µM (inactive)
